Test results: patent publication US20240148888A1, “INTERCELLULAR ADHESION MOLECULE 1 (ICAM1) ANTIBODY DRUG CONJUGATE AND USES THEREOF” (priority 2021, published 2024)

What was measured:
[1] = tested on: MDA-MB-436 tumors; experiment: In vivo efficacy, orthotopic TNBC model, standard setting; settings: 5 mg/kg equivalent dosage
Experimental: For the in vivo efficacy studies, orthotopic TNBC tumors (MDA-MB-436 or MDA-MB-231) were established in 6-8 weeks old female nude mice as described above. Tumors were grown to reach 100 mm^3 for standard setting treatment or 500 mm^3 for late-stage treatment. […] Tumor growth was monitored weekly using caliper. At the endpoint, animals were euthanized with CO2 and orthotopic tumors were excised to measure their mass.

[2] = target: intercellular adhesion molecule 1 (ICAM1) from Homo sapiens (Homo sapiens) (UniProt P05362); experiment: cell-based or functional assay
[3] = tested on: MDA-MB-231 cells; settings: reported in literature; cited from earlier work
[4] = tested on: refractory TNBC; settings: refractory TNBC patients; cited from earlier work

intercellular adhesion molecule 1 (ICAM1) from Homo sapiens (Homo sapiens), sequence (P05362 28-532 limits assumed): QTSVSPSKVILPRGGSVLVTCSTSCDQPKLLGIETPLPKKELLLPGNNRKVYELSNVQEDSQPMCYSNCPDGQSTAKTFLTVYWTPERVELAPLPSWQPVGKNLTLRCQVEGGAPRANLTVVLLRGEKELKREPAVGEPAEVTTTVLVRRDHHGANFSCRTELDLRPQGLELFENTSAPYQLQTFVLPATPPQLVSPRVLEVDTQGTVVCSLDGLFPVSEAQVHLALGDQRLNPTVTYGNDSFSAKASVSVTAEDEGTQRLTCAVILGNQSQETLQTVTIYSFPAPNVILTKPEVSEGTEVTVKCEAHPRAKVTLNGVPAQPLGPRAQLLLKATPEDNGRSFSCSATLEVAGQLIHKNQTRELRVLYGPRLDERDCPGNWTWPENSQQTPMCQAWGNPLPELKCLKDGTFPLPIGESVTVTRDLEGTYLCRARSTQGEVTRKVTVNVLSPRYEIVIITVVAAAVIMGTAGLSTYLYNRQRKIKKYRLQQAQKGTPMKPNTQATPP

With COc1cccc2c1C(=O)c1c(O)c3c(c(O)c1C2=O)C[C@@](O)(C(=O)CO)C[C@@H]3O[C@H]1C[C@H](N)[C@H](O)[C@H](C)O1 [free Dox, Doxorubicin] the “Anti-tumor efficacy” value [1] was “very limited efficacy”.
In the case of “Phycoerythrin (PE)-conjugated anti-human ICAM1 antibody (Clone: HCD54)”, the cellular internalization rate in three TNBC cell lines relative to MCF10A cells (imaging flow cytometry) [2] was 42 to 109 fold and the cellular internalization rate in three TNBC cell lines relative to non-targeting IgG (imaging flow cytometry) [2] was 21 to 129 fold.
In the case of sacituzumab govitecan, the “Resistance of MDA-MB-231 cells” value [3] is given as “resistant”, the Median progression-free survival [4] is given as 5.5 months and the Response rate [4] is given as about 33%.
